Experimental findings from patent US8673886B2, “Use of nifuratel to treat infections caused by Atopobium species” (Polichem SA, priority 2009, dated 2014) are described below.

Values after ≈ are worked out from the molar mass of the structure shown. Like-named read-outs stand apart in the source and are kept apart here.

This assay has as its system Atopobium vaginae. Description: MIC determination on Brucella agar, susceptibility of Atopobium vaginae strains. The class given is cell-based. To be noted: for MIC: Fannyhessea vaginae.
Setting [1] is: all tested strains of Atopobium vaginae.

The MIC is the least concentration at which growth counts as inhibited.

Regarding `Cc1ncc([N+](=O)[O-])n1CCO` [Metronidazole, metronidazole], the MIC (CCUG43049, Atopobium vaginae strain CCUG 43049, Brucella agar, anaerobic, read-out: MIC) amounted to 16 µg/mL (≈ 93.5 µM); the MIC (CCUG44061, Atopobium vaginae strain CCUG 44061, Brucella agar, anaerobic, read-out: MIC) was determined as 64 µg/mL (≈ 374 µM); the minimal inhibitory concentration (MIC) (CCUG44116, Atopobium vaginae strain CCUG 44116, Brucella agar, anaerobic, read-out: MIC) stood at 32 µg/mL (≈ 187 µM); the MIC (CCUG44125, Atopobium vaginae strain CCUG 44125, Brucella agar, anaerobic, read-out: MIC) turned out to be 16 µg/mL (≈ 93.5 µM); the minimal inhibitory concentration (MIC) (CCUG44156, Atopobium vaginae strain CCUG 44156, Brucella agar, anaerobic, read-out: MIC) stood at 8 µg/mL (≈ 46.7 µM); the minimal inhibitory concentration (MIC) (CCUG44258, Atopobium vaginae strain CCUG 44258, Brucella agar, anaerobic, read-out: MIC) was 32 µg/mL (≈ 187 µM). In addition, the minimal inhibitory concentration (MIC) (CCUG48515, Atopobium vaginae strain CCUG 48515, Brucella agar, anaerobic, read-out: MIC) came out at 32 µg/mL (≈ 187 µM). Under setting [1], the “MICs (range over all strains)” value was in the range of 8 to 256 µg/mL. Further, the “susceptibility of Atopobium to the agent (conclusion from MIC)” value under setting [1] is “resistant”.

On to `CSCC1CN(/N=C/c2ccc([N+](=O)[O-])o2)C(=O)O1` (stereo not shown) [Nifuratel, nifuratel], for which the MIC came to 1 µg/mL (≈ 3.51 µM). The MIC (CCUG42099) is 0.5 µg/mL (≈ 1.75 µM). This compound also gave an MIC (CCUG43049) of 0.25 µg/mL (≈ 0.876 µM). This compound also displayed an MIC (CCUG44061) of 1 µg/mL (≈ 3.51 µM). For the setting “CCUG44116”, the MIC is 0.5 µg/mL (≈ 1.75 µM). Also, for the setting “CCUG44125”, the MIC turned out to be 0.25 µg/mL (≈ 0.876 µM). Besides, for the setting “CCUG44156”, the MIC was 0.125 µg/mL (≈ 0.438 µM). In addition, the minimal inhibitory concentration (MIC) (CCUG44258) is 0.5 µg/mL (≈ 1.75 µM). The minimal inhibitory concentration (MIC) (CCUG48515) amounted to 0.5 µg/mL (≈ 1.75 µM). In addition, the “susceptibility of Atopobium to the agent (conclusion from MIC)” value under setting [1] was “sensitive”.
